SMILES strings stand for the structures.

Holding throughout (format): in vivo
A short description of data set [1]: Plasma concentration of Compound A in dogs after oral administration (FIG. 5). Conditions: soft chews at 20 mg/kg and 40 mg/kg compared with polyethylene glycol/alcohol solution at 25 mg/kg. The source says: Although the extremely high bioavailability of the chewable compositions is in part due to the physicochemical properties of the isoxazoline active agents, the high levels observed from the chewable compositions of the invention are made possible by the presence and combination of the non-active excipients, which ensure complete and predictable dissolution of the composition and maintain the active agents in solution in the digestive tract of the animal. […] This plot compares the plasma concentration of an isoxazoline active agent (Compound A) delivered from soft chewable compositions of the invention designed to deliver 20 mg/kg and 40 mg/kg of body weight with administration of a polyethylene glycol/alcohol solution of the active agent at 25 mg/kg body weight. […] This is particularly surprising since the chewable compositions are in the form of a solid that must disintegrate and completely release and solubilize the active agent for efficient absorption during digestion. One would expect the solution to provide higher bioavailability because the active agent is completely dissolved when administered.

Data set [2] relates to fleas (Ctenocephalides felis). Briefly: Efficacy and speed of kill against fleas on dogs (Example 3). How it is done:
Three Treatment Groups were formed. Dogs in Group 1 were untreated. […] Groups 1 and 2 contained 12 dogs each and Group 3 contained 4 dogs. All dogs were treated once on Day 0.
All dogs were infested with approximately 75 C. felis on Days 0 and 7. The dogs in Group 3 and dogs in pre-allocated subgroups in Groups 1 and 2 were also infested with approximately 75 C. felis on Days 14, 21 and 28. Fleas were counted upon removal from selected subjects at 30 minutes, 4 hours, and 12 hours after treatment or infestation on Days 0 and 7. On Days 14, 21 and 28, fleas were counted upon removal from selected subjects at 8 and 12 hours after infestation. […] Following infestation at later timepoints, the composition started working within 30 minutes, and by 12 hours after infestation on Days 7, 14 and 21, efficacy of >98% was achieved.

Data set [3] deals with Amblyomma americanum (lone star tick). Briefly: Efficacy against induced Amblyomma americanum infestations on dogs (Example 4). The note with it: at least approx. 2.5 mg/kg once on Day 0. How it is done:
Two treatment groups were formed, each containing eight dogs each. Dogs in Group 1 were untreated. Dogs in Group 2 were treated once on Day 0 with soft chewable compositions containing Compound A at a concentration to deliver a dose of at least approximately 2.5 mg/kg.
Ticks were counted on Days 2, 9, 16, 23, 30 and 38. The percent efficacy of the treated group versus the untreated control group 48 hours after infestation exceeded 91% at Days 2, 9, 16 and 23, with percent efficacy values of 99.2, 98.7, 99.4 and 91.7, respectively (p-values≤0.001). At Day 38 the percent efficacy was measured at 89.7%.

`O=C(CNC(=O)c1ccc(C2=NOC(c3cc(Cl)cc(C(F)(F)F)c3)(C(F)(F)F)C2)c2ccccc12)NCC(F)(F)F` (stereo not drawn) [Compound A, 4-[5-[3-chloro-5-(trifluoromethyl)phenyl]-4,5-dihydro-5-(trifluoromethyl)-3-isoxazolyl]-N-[2-oxo-2-[(2,2,2-trifluoroethyl)amino]ethyl]-1-naphthalenecarboxamide]: the “Plasma concentration of Compound A” value in data set [1] is on record as “significantly higher plasma levels”. In addition, the Flea efficacy is on record as 100% in data set [2] (12 hours after administration on Day 0, soft chews of Tables 7 and 8, approx. 2.5 mg/kg); more than 98% in data set [2] (by 12 hours after infestation on Days 7, 14 and 21, soft chews of Tables 7 and 8, approx. 2.5 mg/kg once on Day 0). For the same compound, the “Time until compositions started working against fleas” value in data set [2] (after treatment on Day 0, approx. 2.5 mg/kg) is not above 30 min. The “Time until composition started working against fleas” value in data set [2] (following infestation at later timepoints, approx. 2.5 mg/kg once on Day 0) was not above 30 min. Moreover, the “Percent efficacy versus untreated control group” value is given as “exceeded 91%” in data set [3] (48 hours after infestation, at Days 2, 9, 16 and 23, Table 10 soft chew); 99.2% in data set [3] (Day 2, 48 hours after infestation, Table 10 soft chew); 98.7% in data set [3] (Day 9, 48 hours after infestation, Table 10 soft chew); 99.4% in data set [3] (Day 16, 48 hours after infestation, Table 10 soft chew); 91.7% in data set [3] (Day 23, 48 hours after infestation, Table 10 soft chew); 89.7% in data set [3] (Day 38, Table 10 soft chew). In addition, the “Duration of excellent control of Amblyomma americanum” value in data set [3] (Table 10 soft chew) was more than 30 days.
